Values joined by “and” are separate entries in the source; they are usually repeats but may differ in a detail not shown here. Equal entries are not always repeated. Where two headings read alike, the source gives them in different places.
Assays:
[1] = parameters: method as in earlier work; conditions: cited from earlier work
CYP2C19 = target: T1, CYP2C19 (Homo sapiens, UniProt P33261); test: Intrinsic clearance using recombinant CYPs: CYP2C19; format: in vitro ADME
T1 construct: purchased Corning Life Sciences (Woburn, MA, USA)
T1 sequence (P33261 whole entry): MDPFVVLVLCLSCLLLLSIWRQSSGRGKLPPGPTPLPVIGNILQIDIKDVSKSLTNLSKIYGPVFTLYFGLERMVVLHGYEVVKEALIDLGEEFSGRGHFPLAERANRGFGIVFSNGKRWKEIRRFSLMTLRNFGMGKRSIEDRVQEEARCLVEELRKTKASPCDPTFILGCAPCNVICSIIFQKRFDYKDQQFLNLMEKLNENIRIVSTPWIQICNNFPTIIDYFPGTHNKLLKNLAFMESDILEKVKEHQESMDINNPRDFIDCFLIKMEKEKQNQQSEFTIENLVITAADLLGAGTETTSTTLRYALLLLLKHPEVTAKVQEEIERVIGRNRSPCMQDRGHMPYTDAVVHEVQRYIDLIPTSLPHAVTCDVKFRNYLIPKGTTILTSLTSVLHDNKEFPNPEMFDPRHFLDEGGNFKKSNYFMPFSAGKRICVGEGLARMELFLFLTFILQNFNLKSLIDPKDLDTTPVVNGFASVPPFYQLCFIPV
Method: (§1) The elimination profiles of tegoprazan and M1 were assessed using rCYPs. All the assay procedures were performed according to the manufacturer’s instructions. Master mix (1.399 mL), containing the NADPH-generating system, 3.3 mM of glucose 6-phosphate, PBS buffer, deionized water, and each rCYP (25 pmol/μL of CYP2C8, 2C19, and 2E1 and 50 pmol/μL of CYP3A4, 2C9, and 2D6), was added to a microtube and pre-incubated at 37 °C for 5 min. Next, 1 μM tegoprazan and M1 were added and incubated at 37 °C for 0, 5, 10, 20, 30, 45, and 60 min. A total of 100 μL of the sample, incubated for predefined duration, was transferred to a fresh e-tube. Next, 200 μL of acetonitrile containing tegoprazan-d6 (0.5 μM) was added, vortexed for 5 min, and centrifuged at 16,200× g and 4 °C for 10 min. The concentrations of the remaining tegoprazan and M1 were determined by LC–MS/MS. All experiments were performed in duplicate. CLint,rCYP levels were assessed using the results of the disappearance test. […] The CLint resulting from rCYPs was calculated using Equation (3):(3) CLint,rCYP(μL/min/pmol CYP)=0.693/t1/2×1400/concentration of CYP
(§2) Caco-2 and rCYP samples were quantified using LC-MS/MS (UPLC® I-class coupled with TQ-MS (Waters, Milford, MA, USA). The mobile phase comprised (a) 0.1% formic acid and (b) acetonitrile containing 0.1% formic acid. Gradient elution at a flow rate of 0.3 mL/min was applied. Tegoprazan, M1, and the internal standard (tegoprazan-d6) were optimized in electrospray ionization positive mode. Acetonitrile with 0.1 μM of tegoprazan-d6 was added to the collected Caco-2 or rCYP samples. Then, processed samples were centrifuged at 13,000× g for 20 min. After centrifugation, 100 μL of supernatant was transferred to an LC-MS vial and analyzed using LC-MS/MS. […] The stability of tegoprazan was evaluated, and it satisfied the acceptance criteria (coefficient of variances was within 15%) under variable conditions including reinjection, processed sample stability (PSS), and short-term stability for the stock and sample.

[2] = Clinical PK of single and repeated oral doses of tegoprazan in healthy adult males (literature); format: in vivo, human; conditions: 100 mg once daily; from values of ref 15
[3] = Caco-2 permeability assay; format: in vitro ADME; conditions: human
Method: Caco-2 cells were cultured in DMEM supplemented with 20% FBS, 1% non-essential amino acids, and 1% penicillin-streptomycin. Caco-2 cells were seeded onto collagen-coated 12-Transwell membranes at a density of 5 × 10^5 cells/mL and incubated under optimal conditions (maintained at 37 °C in a humidified atmosphere with 5% CO2/95% air) for 21 days. The culture medium was replaced every second day. For the experiments, after the growth medium was removed, the attached cells were washed with pre-warmed HBSS (pH 7.4) and pre-incubated with HBSS for 20 min at 37 °C. The integrity of the cell monolayers was evaluated before and after the permeability experiments by measuring transepithelial electrical resistance (TEER) values using an epithelial volt/ohm meter (World Precision Instruments, Sarasota, FL, USA). Caco-2 cells with TEER values higher than 300 Ω∙cm^2 were used for permeability experiments, and alterations in TEER values were less than 10% in all cases (i.e., 417.3 ± 6.3 Ω∙cm^2 and 400.8 ± 3.5 Ω∙cm^2, before and after the permeability experiments, respectively).
To determine the apical to basal (A to B) permeability of tegoprazan, 0.5 mL of HBSS containing 10 µM tegoprazan and 1.5 mL of fresh HBSS were added to the apical and basal side of the insert, respectively. The insert was transferred to a new well that contained 1.5 mL of fresh HBSS every 15 min, for 1 h. Aliquots (0.3 mL) on the basal side were transferred to fresh tubes and stored at −80 °C until further analysis. To investigate B-to-A permeability, 1.5 mL of HBSS containing 10 µM tegoprazan and 0.5 mL of fresh HBSS were added to the basal and apical sides of the insert, respectively. Aliquots (0.3 mL) on the apical side were transferred to fresh tubes, and 0.3 mL of pre-warmed fresh HBSS was replaced every 15 min for 1 h. The transport study was performed for 1 h based on the linearity of the cumulative transported tegoprazan amount versus transport time. The cumulative transported amount was calculated as the sum of transported amounts for 0–15 min, 15–30 min, 30–45 min, and 45–60 min, and the transport rate of tegoprazan was the slope of the regression line derived from the cumulative transported amount versus time plot. The apparent permeability (Papp) was calculated from the following Equation (2):(2) Papp(10^−6cm/s)=transport rate (nmol/min)/concentration (μM)× area(cm^2)×60 s
Caco-2 and rCYP samples were quantified using LC-MS/MS (UPLC® I-class coupled with TQ-MS (Waters, Milford, MA, USA). The mobile phase comprised (a) 0.1% formic acid and (b) acetonitrile containing 0.1% formic acid. Gradient elution at a flow rate of 0.3 mL/min was applied. Tegoprazan, M1, and the internal standard (tegoprazan-d6) were optimized in electrospray ionization positive mode. Acetonitrile with 0.1 μM of tegoprazan-d6 was added to the collected Caco-2 or rCYP samples. Then, processed samples were centrifuged at 13,000× g for 20 min. After centrifugation, 100 μL of supernatant was transferred to an LC-MS vial and analyzed using LC-MS/MS. The analytical method was validated based on the Bioanalytical Method Validation Guidance for Industry published by the US Food and Drug Administration and the Guideline on Bioanalytical Method Validation published by the Korean Ministry of Food and Drug Safety (MFDS). Linearity was in the range of 0.1–20 µM, and the inter-batch accuracy and precision were in the ranges of 91.8–101.3% and 2.3–8.9%, respectively. The stability of tegoprazan was evaluated, and it satisfied the acceptance criteria (coefficient of variances was within 15%) under variable conditions including reinjection, processed sample stability (PSS), and short-term stability for the stock and sample.

CYP3A4 = system: CYP3A4; parameters: method as in ref 18 = [18]; PMID 34575565; doi:10.3390/pharmaceutics13091489; 18. Yoon D.Y. Lee S. Jang I.-J. Kim M. Lee H. Kim S. Kim B. Song G.S. Rhee S.-J. Prediction of Drug–Drug Interaction Potential of Tegoprazan Using Physiologically Based Pharmacokinetic Modeling and Si; conditions: cited from earlier work
CYP2C9 = target: T2, CYP2C9 (Homo sapiens, UniProt P11712); test: Intrinsic clearance using recombinant CYPs: CYP2C9; format: in vitro ADME
T2 construct: purchased Corning Life Sciences (Woburn, MA, USA)
T2 sequence (P11712 whole entry): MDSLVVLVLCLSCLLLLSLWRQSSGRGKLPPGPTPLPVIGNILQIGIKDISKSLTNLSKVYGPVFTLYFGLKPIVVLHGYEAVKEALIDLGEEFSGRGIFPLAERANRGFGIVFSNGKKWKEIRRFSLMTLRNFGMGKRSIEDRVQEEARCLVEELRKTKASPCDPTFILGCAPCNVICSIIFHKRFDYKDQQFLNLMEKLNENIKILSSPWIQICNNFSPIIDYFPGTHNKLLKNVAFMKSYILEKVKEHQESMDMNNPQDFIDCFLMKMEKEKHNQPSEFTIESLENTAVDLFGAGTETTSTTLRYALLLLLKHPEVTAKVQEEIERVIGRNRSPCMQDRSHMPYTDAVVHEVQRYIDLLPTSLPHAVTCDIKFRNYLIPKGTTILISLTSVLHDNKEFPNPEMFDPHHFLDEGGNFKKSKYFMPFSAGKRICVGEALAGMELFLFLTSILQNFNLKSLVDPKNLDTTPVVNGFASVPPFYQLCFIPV
Method: as §1, §2

CLint, CYP2C19 (CYP2C19; 1 μM, experimental (initial model value)): 0.61 µL/min/pmol and 0.614 µL/min/pmol
half-life at 1 μM (CYP2C19; human, recombinant CYP2C19, rCYP2C19): 1.05 h
Slope (disappearance) (CYP2C19; rCYP2C19, 1 μM): -0.011
decrease of observed Cmax at Day 7 compared with Day 1 [2]: approximately 40.2%
Papp at 1 h, 10 µM ([3]; Caco-2, pH 7.4, A to B, pH 7.4/7.4, 10 µM, read-out: Papp, Mean): 12.5 ×10⁻⁶ cm/s
recovery at 1 h, 10 µM ([3]; Caco-2, pH 7.4, A to B, pH 7.4/7.4, 10 µM, read-out: Recovery, Mean): 84.5%
recovery at 1 h, 10 µM ([3]; Caco-2, pH 7.4, A to B, pH 7.4/7.4, 10 µM, single replicates A-C, read-out: Recovery): 82.7%
Papp at 1 h, 10 µM ([3]; Caco-2, pH 7.4, A to B, pH 7.4/7.4, 10 µM, single replicates, read-out: Papp): 13.4 ×10⁻⁶ cm/s
Papp at 1 h, 10 µM ([3]; Caco-2, pH 7.4, B to A, pH 7.4/7.4, 10 µM, read-out: Papp, Mean): 11.7 ×10⁻⁶ cm/s
recovery at 1 h, 10 µM ([3]; Caco-2, pH 7.4, B to A, pH 7.4/7.4, 10 µM, read-out: Recovery, Mean): 84.3%
recovery at 1 h, 10 µM ([3]; Caco-2, pH 7.4, B to A, pH 7.4/7.4, 10 µM, single replicates A-C, read-out: Recovery): 85.9%
Papp at 1 h, 10 µM ([3]; Caco-2, pH 7.4, B to A, pH 7.4/7.4, 10 µM, single replicates, read-out: Papp): 11.4 ×10⁻⁶ cm/s
Papp at 1 h, 10 µM ([3]; Caco-2, pH 7.4, initial model value (experimental), read-out: Papp,caco-2): 12.5 ×10⁻⁶ cm/s
CLint, CYP2C9 (CYP2C9; 1 μM, experimental data): 0.14 µL/min/pmol and 0.140 µL/min/pmol
half-life at 1 μM (CYP2C9; human, recombinant CYP2C9, rCYP2C9): 2.27 h
Slope (disappearance) (CYP2C9; rCYP2C9, 1 μM): -0.005
Compound: Cc1nc2cc(C(=O)N(C)C)cc(O[C@H]3CCOc4cc(F)cc(F)c43)c2[nH]1 [tegoprazan]
CLR (renal clearance) [1]: 1.1 L/h
fu (unbound fraction) ([1]; plasma): 0.087
predicted systemic exposure change (CYP3A4; co-administered with the maximum recommended dose of clarithromycin or ketoconazole vs without CYP3A4 modulator): increased by approximately three-fold
predicted decrease of systemic exposure (CYP3A4; with the CYP3A4 inducer rifampicin): up to 30%

Source: publication PMC9230797, “Integration of a Physiologically Based Pharmacokinetic and Pharmacodynamic Model for Tegoprazan and Its Metabolite: Application for Predicting Food Effect and Intragastric pH Alterations” (Pharmaceutics, 2022)
